Assay results: patent publication US8916554B2, “Amino-derivatives as novel inhibitors of histone deacetylase” (Janssen Pharmaceutica N.V., priority 2002, dated 2014)
Values after ≈ are worked out from the molar mass of the structure shown. Where two headings read alike, the source gives them in different places.

Columns and labels:
[1] = system: human A2780 ovarian carcinoma cells; experiment: Determination of antiproliferative activity on A2780 cells (MTT); type: cell-based; settings: four days of incubation; for IC50: Homo sapiens, 96 h, read-out: Cellular activity pIC50 (converted)
Description: Cellular activity of the compounds of formula (I) was determined on A2780 tumour cells using a colorimetric assay for cell toxicity or survival (Mosmann Tim, Journal of Immunological Methods 65: 55-63, 1983)(see example C.2).
All compounds tested were dissolved in DMSO and further dilutions were made in culture medium. Final DMSO concentrations never exceeded 0.1% (v/v) in cell proliferation assays. Controls contained A2780 cells and DMSO without compound and blanks contained DMSO but no cells. MTT was dissolved at 5 mg/ml in PBS. A glycine buffer comprised of 0.1 M glycine and 0.1 M NaCl buffered to pH 10.5 with NaOH (1 N) was prepared (all reagents were from Merck).
The human A2780 ovarian carcinoma cells (a kind gift from Dr. T. C. Hamilton [Fox Chase Cancer Centre, Pennsylvania, USA]) were cultured in RPMI 1640 medium supplemented with 2 mM L-glutamine, 50 μg/ml gentamicin and 10% fetal calf serum. Cells were routinely kept as monolayer cultures at 37° C. in a humidified 5% CO2 atmosphere. Cells were passaged once a week using a trypsin/EDTA solution at a split ratio of 1:40. All media and supplements were obtained from Life Technologies. Cells were free of mycoplasma contamination as determined using the Gen-Probe Mycoplasma Tissue Culture kit (supplier: BioMérieux).
Cells were seeded in NUNC™ 96-well culture plates (Supplier: Life Technologies) and allowed to adhere to the plastic overnight. Densities used for plating were 1500 cells per well in a total volume of 200 μl medium. After cell adhesion to the plates, medium was changed and drugs and/or solvents were added to a final volume of 200 μl. Following four days of incubation, medium was replaced by 200 μl fresh medium and cell density and viability was assessed using an MTT-based assay. To each well, 25 μl MTT solution was added and the cells were further incubated for 2 hours at 37° C. The medium was then carefully aspirated and the blue MTT-formazan product was solubilized by addition of 25 μl glycine buffer followed by 100 μl of DMSO. […] Within an experiment, the results for each experimental condition are the mean of 3 replicate wells. For initial screening purposes, compounds were tested at a single fixed concentration of 10^−6 M. For active compounds, the experiments were repeated to establish full concentration-response curves. For each experiment, controls (containing no drug) and a blank incubation (containing no cells or drugs) were run in parallel. The blank value was subtracted from all control and sample values. For each sample, the mean value for cell growth (in absorbance units) was expressed as a percentage of the mean value for cell growth of the control. […] Herein the effects of test compounds are expressed as pIC50 (the negative log value of the IC50-value).

[2] = Kinetic solubility in aqueous media; type: physicochemical; settings: aqueous buffer, kinetic from dmso stock; phosphate citrate buffer pH 7.4, turbidity by nephelometer; read-out: Solubility Score
Description: Kinetic solubility in aqueous media measures the ability of a compound to stay in aqueous solution upon dilution (see example C.3).
DMSO-stock solutions are diluted with a single aqueous buffer solvent in 3 consecutive steps. For every dilution turbidity is measured with a nephelometer.
In the first dilution step, 10 μl of a concentrated stock-solution of the active compound, solubilized in DMSO (5 mM), was added to 100 μl phosphate citrate buffer pH 7.4 and mixed. In the second dilution step, an aliquot (20 μl) of the first dilution step was further dispensed in 100 μl phosphate citrate buffer pH 7.4 and mixed. Finally, in the third dilution step, a sample (20 μl) of the second dilution step was further diluted in 100 μl phosphate citrate buffer pH 7.4 and mixed. All dilutions were performed in 96-well plates. Immediately after the last dilution step the turbidity of the three consecutive dilution steps were measured with a nephelometer. Dilution was done in triplicate for each compound to exclude occasional errors. Based on the turbidity measurements a ranking is performed into 3 classes. Compounds with high solubility obtained a score of 3 and for this compounds the first dilution is clear. Compounds with medium solubility obtained a score of 2. For these compounds the first dilution is unclear and the second dilution is clear. […] The solubility of 14 compounds was measured.

[3] = biological target: histone deacetylase (HDAC), HeLa nuclear extracts; experiment: In vitro assay for inhibition of histone deacetylase; type: biochemical; set-up: key: pIC50 = negative log of IC50; settings: [3H]acetylated histone H4 peptide substrate
Description: The in vitro assay for inhibition of histone deacetylase (see example C.1) measures the inhibition of HDAC enzymatic activity obtained with the compounds of formula (I).
HeLa nuclear extracts (supplier: Biomol) were incubated at 60 μg/ml with 2×10^−8 M of radiolabeled peptide substrate. As a substrate for measuring HDAC activity a synthetic peptide, i.e. the amino acids 14-21 of histone H4, was used. The substrate is biotinylated at the NH2-terminal part with a 6-aminohexanoic acid spacer, and is protected at the COOH-terminal part by an amide group and specifically [^3H]acetylated at lysine 16. The substrate, biotin-(6-aminohexanoic)Gly-Ala-([^3H]-acetyl-Lys-Arg-His-Arg-Lys-Val-NH2), was added in a buffer containing 25 mM Hepes, 1 M sucrose, 0.1 mg/ml BSA and 0.01% Triton X-100 at pH 7.4. After 30 min the deacetylation reaction was terminated by the addition of HCl and acetic acid. (final concentration 0.035 mM and 3.8 mM respectively). After stopping the reaction, the free ^3H-acetate was extracted with ethylacetate. After mixing and centrifugation, the radioactivity in an aliquot of the upper (organic) phase was counted in a β-counter.
For each experiment, controls (containing HeLa nuclear extract and DMSO without compound), a blank incubation (containing DMSO but no HeLa nuclear extract or compound) and samples (containing compound dissolved in DMSO and HeLa nuclear extract) were run in parallel. In first instance, compounds were tested at a concentration of 10^−5M. […] In each test the blank value was substracted from both the control and the sample values. The control sample represented 100% of substrate deactylation. For each sample the radioactivity was expressed as a percentage of the mean value of the controls. […] Herein the effects of test compounds are expressed as pIC50 (the negative log value of the IC50-value).

[4] = not given; remark: listed apart in the source

IC50 [1] [nM]	solubility [2] [µM]	melting point [°C]	Enzyme activity pIC50 [3]	Cellular activity pIC50 [1]	% metabolism ([4]; human, 15 min, 5 μM) [%]	Structure (SMILES)	% metabolism ([4]; after 15 min of incubation with active microsomes (1 mg/ml), compound 5 μM) [%]
1900	< 75.8	137	7.23			O=C(NO)c1cnc(NCC2CCCN(S(=O)(=O)c3ccc4ccccc4c3)C2)nc1 (stereo not shown) [Co. No. 8]	
1450	< 75.8	227	7.314			O=C(NO)c1cnc(NC2CCCN(S(=O)(=O)c3ccc(-c4ccccc4)cc3)CC2)nc1 (stereo not shown) [Co. No. 4]	
3120	75.8 to 454 (≈ 33.5 to 201 µg/mL)	140	7.306			O=C(NO)c1cnc(NC2CCCN(S(=O)(=O)c3ccc4ccccc4c3)CC2)nc1 (stereo not shown) [Co. No. 3]	
3370	> 454	256	7.525			O=C(NO)c1cnc(NC2CCN(S(=O)(=O)c3ccc4ccccc4c3)CC2)nc1 [Co. No. 5]	
		115				O=C(NO)c1ccc(NC2CCCN(S(=O)(=O)c3ccc(-c4ccccc4)cc3)CC2)nc1 (stereo not shown) (hydrate or solvate) [Co. No. 2]	
			7.077	5.201		O=C(NO)c1cnc(NC2CCN(S(=O)(=O)c3ccc(-c4ccccc4)cc3)CC2)nc1 [compound 14]	
7780	< 75.8	240	7.408			O=C(NO)c1cnc(NCC2CCN(S(=O)(=O)c3ccc4ccccc4c3)CC2)nc1 [Co. No. 7]	
2150	> 454	226	7.161			O=C(NO)c1cnc(NCC2CN(S(=O)(=O)c3ccc4ccccc4c3)CCO2)nc1 (stereo not shown) [Co. No. 9]	
						CCCO [propanol]	25
		115				O=C(NO)c1ccc(NC2CCCN(S(=O)(=O)c3ccc4c(c3)CCCC4)CC2)nc1 (stereo not shown) (hydrate or solvate) [Co. No. 6]	
2450	> 454	160	7.676			O=C(NO)c1ccc(NC2CCN(S(=O)(=O)c3ccc4ccccc4c3)CC2)nc1 [Co. No. 1]	
4520	75.8 to 454 (≈ 33.7 to 202 µg/mL)		6.853			O=C(NO)c1ccc(NC2CCCN(S(=O)(=O)c3ccc4c(c3)CCCC4)CC2)nc1 (stereo not shown) [Co. No. 6]	
					45	COc1cc(N)c(Cl)cc1C(=O)NC1CCN(CCCOc2ccc(F)cc2)CC1OC (stereo not shown) [Cisapride]	
1570	< 75.8		6.871			O=C(NO)c1ccc(NC2CCCN(S(=O)(=O)c3ccc(-c4ccccc4)cc3)CC2)nc1 (stereo not shown) [Co. No. 2]	
